Values after ≈ are worked out from the molar mass of the structure shown. Read-outs that look alike come from different tables or passages of the source.
What was measured:
human (hACC2) = human (hACC2) (Homo sapiens, UniProt O00763); assay: In vitro ACC inhibition assay (ADP-Glo), hACC2; assay type: biochemical; settings: 5 nM ACC2, 20 μM ATP, 20 μM acetyl-CoA
Experimental: The detailed procedure is as follows. […] 10 μL ADP glo reagent was added. […] 20 μL kinase detection reagent was added.

C. krusei = assay: Antifungal Activity Assay (broth microtiter MIC), C. krusei; assay type: cell-based, Candida krusei; settings: Pichia kudriavzevii, ATCC6258, 48 h
Procedure, shortened: (§1)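 MIC read by eye at 48 h, comparing challenged wells with the growth control. Yeasts grown overnight on Sabouraud dextrose agar at 35° C, suspended in RPMI 1640+MOPS and added at 2.5×10^3 CFU/mL final, following CLSI M27-A3.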

C. parapsilosis = assay: Antifungal Activity Assay (broth microtiter MIC), C. parapsilosis; assay type: cell-based, Candida parapsilosis; settings: Lodderomyces parapsilosis, ATCC22019, 48 h
Procedure, shortened: as §1

[1] = tested on: Collectotrichum graminicola (Cg); assay: Growth inhibition assay of fungal pathogens, Cg; assay type: cell-based; settings: 48 h
Procedure, shortened: (§2)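 Spores from sub-cultured plates were diluted in 17% V8 liquid medium and exposed to compound from DMSO stocks at final concentrations of 50, 10 and 2 ppm or 2, 0.4 and 0.08 ppm. OD600 and visual ratings at 48 h were compared with the 2% DMSO control to give percent growth inhibition.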

[2] = tested on: Fusarium moniliforme (Fm); assay: Growth inhibition assay of fungal pathogens, Fm; assay type: cell-based; settings: for IC90: Fusarium verticillioides, 48 h, read-out: Concentration at 90% Inhibition Fm
Procedure, shortened: as §2

[3] = tested on: Fusarium virguliforme (Fv); assay: Growth inhibition assay of fungal pathogens, Fv; assay type: cell-based; settings: 48 h
Procedure, shortened: as §2

[4] = tested on: Phytophthora capsici (Pc); assay: Growth inhibition assay of fungal pathogens, Pc; assay type: cell-based; settings: 48 h
Procedure, shortened: as §2

Rhizoctonia solani (Rs) = assay: Growth inhibition assay of fungal pathogens, Rs; assay type: cell-based; settings: 48 h
Septoria tritici (St) = assay: Growth inhibition assay of fungal pathogens, St; assay type: cell-based; settings: Zymoseptoria tritici, 48 h
Procedure, shortened: as §2

[5] = Table 3a, ATCC 6258, 3 replicates, MIC recorded at 48 h, read-out: MIC, C. krusei ATCC 6258
[6] = Table 3b (additional results), ATCC 6258, 3 replicates, MIC recorded at 48 h, read-out: MIC, C. krusei ATCC 6258
[7] = Table 3a, ATCC 22019, 3 replicates, MIC recorded at 48 h, read-out: MIC, C. parapsilosis ATCC 22019
[8] = Table 3b (additional results), ATCC 22019, 3 replicates, MIC recorded at 48 h, read-out: MIC, C. parapsilosis ATCC 22019
[9] = Collectotrichum graminicola, growth inhibition at 48 hours vs 2% DMSO control, read-out: Concentration at 90% Inhibition Cg
[10] = Collectotrichum graminicola, growth inhibition vs 2% DMSO control at 48 hours, read-out: Concentration at 90% Inhibition Cg
[11] = Fusarium moniliforme, growth inhibition at 48 hours vs 2% DMSO control
[12] = Fusarium moniliforme, growth inhibition vs 2% DMSO control at 48 hours
[13] = growth inhibition at 48 hours vs 2% DMSO control, read-out: Concentration at 90% Inhibition Fv
[14] = growth inhibition vs 2% DMSO control at 48 hours, read-out: Concentration at 90% Inhibition Fv
[15] = growth inhibition at 48 hours vs 2% DMSO control, read-out: Concentration at 90% Inhibition Pc
[16] = growth inhibition vs 2% DMSO control at 48 hours, read-out: Concentration at 90% Inhibition Pc
[17] = mycelial plugs, growth inhibition at 48 hours vs 2% DMSO control, read-out: Concentration at 90% Inhibition Rs
[18] = mycelial plugs, growth inhibition vs 2% DMSO control at 48 hours, read-out: Concentration at 90% Inhibition Rs
[19] = Septoria tritici, growth inhibition at 48 hours vs 2% DMSO control, read-out: Concentration at 90% Inhibition St
[20] = Septoria tritici, growth inhibition vs 2% DMSO control at 48 hours, read-out: Concentration at 90% Inhibition St

human (hACC2), sequence (O00763 whole entry): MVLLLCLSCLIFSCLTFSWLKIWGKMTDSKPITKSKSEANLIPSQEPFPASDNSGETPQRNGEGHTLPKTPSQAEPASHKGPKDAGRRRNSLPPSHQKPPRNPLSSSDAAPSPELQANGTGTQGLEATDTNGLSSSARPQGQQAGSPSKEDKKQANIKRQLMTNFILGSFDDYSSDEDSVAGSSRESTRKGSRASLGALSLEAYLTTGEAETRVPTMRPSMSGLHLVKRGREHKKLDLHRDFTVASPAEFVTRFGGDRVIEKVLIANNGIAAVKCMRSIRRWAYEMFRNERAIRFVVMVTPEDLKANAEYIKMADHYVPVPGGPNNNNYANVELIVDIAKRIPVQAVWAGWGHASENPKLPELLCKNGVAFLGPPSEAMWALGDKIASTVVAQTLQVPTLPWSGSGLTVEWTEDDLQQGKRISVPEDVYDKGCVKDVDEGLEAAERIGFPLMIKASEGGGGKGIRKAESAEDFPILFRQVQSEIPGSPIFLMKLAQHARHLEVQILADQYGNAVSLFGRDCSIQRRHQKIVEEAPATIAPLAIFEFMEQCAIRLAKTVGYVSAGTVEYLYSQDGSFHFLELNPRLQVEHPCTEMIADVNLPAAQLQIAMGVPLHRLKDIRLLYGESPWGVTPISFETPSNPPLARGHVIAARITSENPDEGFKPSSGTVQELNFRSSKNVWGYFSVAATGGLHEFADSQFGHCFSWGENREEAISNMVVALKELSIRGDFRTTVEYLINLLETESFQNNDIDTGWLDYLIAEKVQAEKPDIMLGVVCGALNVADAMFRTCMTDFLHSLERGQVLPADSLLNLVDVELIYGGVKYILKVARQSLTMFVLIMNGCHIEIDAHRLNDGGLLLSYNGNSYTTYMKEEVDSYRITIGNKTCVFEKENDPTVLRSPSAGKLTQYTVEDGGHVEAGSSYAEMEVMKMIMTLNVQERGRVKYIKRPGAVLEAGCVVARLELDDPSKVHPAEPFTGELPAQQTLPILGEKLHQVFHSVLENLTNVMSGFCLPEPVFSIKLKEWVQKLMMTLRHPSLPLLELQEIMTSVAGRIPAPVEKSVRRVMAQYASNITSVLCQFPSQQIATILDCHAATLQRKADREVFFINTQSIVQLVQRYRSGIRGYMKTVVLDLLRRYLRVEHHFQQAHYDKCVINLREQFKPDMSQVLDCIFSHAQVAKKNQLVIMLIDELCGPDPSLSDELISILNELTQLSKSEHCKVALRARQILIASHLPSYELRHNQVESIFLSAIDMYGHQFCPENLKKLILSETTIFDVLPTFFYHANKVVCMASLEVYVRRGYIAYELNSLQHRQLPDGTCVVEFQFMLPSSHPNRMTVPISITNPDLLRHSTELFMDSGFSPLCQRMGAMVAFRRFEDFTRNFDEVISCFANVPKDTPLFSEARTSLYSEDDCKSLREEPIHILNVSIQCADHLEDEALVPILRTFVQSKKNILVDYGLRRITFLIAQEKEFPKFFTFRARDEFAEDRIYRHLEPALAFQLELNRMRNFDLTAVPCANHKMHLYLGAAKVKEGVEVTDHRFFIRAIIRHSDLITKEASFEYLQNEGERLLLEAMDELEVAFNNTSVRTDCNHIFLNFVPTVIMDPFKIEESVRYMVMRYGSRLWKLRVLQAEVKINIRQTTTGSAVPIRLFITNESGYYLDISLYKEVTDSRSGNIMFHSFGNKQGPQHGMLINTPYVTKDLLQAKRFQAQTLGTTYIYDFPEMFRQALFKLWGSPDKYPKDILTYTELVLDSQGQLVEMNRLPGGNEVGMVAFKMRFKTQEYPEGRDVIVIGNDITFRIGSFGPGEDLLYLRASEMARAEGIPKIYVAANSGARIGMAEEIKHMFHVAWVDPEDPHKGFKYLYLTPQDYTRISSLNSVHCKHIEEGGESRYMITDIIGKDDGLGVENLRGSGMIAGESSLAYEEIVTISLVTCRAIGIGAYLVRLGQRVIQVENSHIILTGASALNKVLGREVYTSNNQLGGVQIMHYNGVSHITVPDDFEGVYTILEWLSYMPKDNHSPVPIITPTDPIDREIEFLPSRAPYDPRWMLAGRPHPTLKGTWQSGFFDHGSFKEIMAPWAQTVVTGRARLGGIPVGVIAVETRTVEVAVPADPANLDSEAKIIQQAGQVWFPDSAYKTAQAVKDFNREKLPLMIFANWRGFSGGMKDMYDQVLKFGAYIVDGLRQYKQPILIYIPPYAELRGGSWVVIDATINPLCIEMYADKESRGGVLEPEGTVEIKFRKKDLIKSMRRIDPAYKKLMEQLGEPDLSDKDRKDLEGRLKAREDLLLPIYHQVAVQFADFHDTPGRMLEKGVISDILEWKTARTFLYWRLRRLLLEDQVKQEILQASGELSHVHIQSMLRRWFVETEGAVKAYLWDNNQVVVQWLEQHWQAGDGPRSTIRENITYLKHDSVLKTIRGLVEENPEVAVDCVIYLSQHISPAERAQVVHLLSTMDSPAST

SMILES | IC50 (human (hACC2); Table 2a) [nM] | IC50 (human (hACC2); Table 2b, additional results) [nM] | MIC (C. krusei; [5]) [µg/mL] | MIC (C. krusei; [6]) [µg/mL] | MIC (C. parapsilosis; [7]) [µg/mL] | MIC (C. parapsilosis; [8]) [µg/mL] | IC90 [1, 9] [µg/mL] | IC90 [1, 10] [µg/mL] | IC90 [2, 11] [µg/mL] | IC90 [2, 12] [µg/mL] | IC90 [3, 13] [µg/mL] | IC90 [3, 14] [µg/mL] | IC90 [4, 15] [µg/mL] | IC90 [4, 16] [µg/mL] | IC90 (Rhizoctonia solani (Rs); [17]) [µg/mL] | IC90 (Rhizoctonia solani (Rs); [18]) [µg/mL] | IC90 (Septoria tritici (St); [19]) [µg/mL] | IC90 (Septoria tritici (St); [20]) [µg/mL] | also measured
CCNC(=O)C(C)(C)n1c(=O)c2c(C)c(-n3nccn3)sc2n(C[C@H](OC2CCOCC2)c2ccccc2OC)c1=O [Compound I-15, (R)—N-ethyl-2-(1-(2-(2-methoxyphenyl)-2-((tetrahydro-2H-pyran-4-yl)oxy)ethyl)-5-methyl-2,4-dioxo-6-(2H-1,2,3-triazol-2-yl)-1,4-dihydro-thieno[2,3-d]pyrimidin-3(2H)-yl)-2-methylpropanamide] | 1 to 5 | 1 to 5 | 0.25 to 1 (≈ 0.419 to 1.68 µM) | 0.25 to 1 (≈ 0.419 to 1.68 µM) | 0.25 to 1 (≈ 0.419 to 1.68 µM) | 0.25 to 1 (≈ 0.419 to 1.68 µM) | 2 (≈ 3.35 µM) | 10 (≈ 16.8 µM) | 0.08 (≈ 0.134 µM) | 0.08 (≈ 0.134 µM) | 10 (≈ 16.8 µM) | > 50 | > 50 | > 50 | 10 (≈ 16.8 µM) | > 50 | > 50 | > 50 | –
COc1ccc(F)cc1[C@H](Cn1c(=O)n(C(C)(C)C(=O)N2CCCC2)c(=O)c2c(C)c(-n3nccn3)sc21)OCC(C)C [Compound I-12, (R)-1-(2-(5-fluoro-2-methoxyphenyl)-2-isobutoxyethyl)-5-methyl-3-(2-methyl-1-oxo-1-(pyrrolidin-1-yl)propan-2-yl)-6-(2H-1,2,3-triazol-2-yl)thieno[2,3-d]pyrimidine-2,4(1H,3H)-dione] | 10 to 40 | 10 to 40 | 0.25 to 1 (≈ 0.408 to 1.63 µM) | 0.25 to 1 (≈ 0.408 to 1.63 µM) | 2.1 to 4 (≈ 3.43 to 6.53 µM) | 1.01 to 2 (≈ 1.65 to 3.26 µM) | 0.08 (≈ 0.131 µM) | 0.08 (≈ 0.131 µM) | 0.08 (≈ 0.131 µM) | 0.08 (≈ 0.131 µM) | 0.4 (≈ 0.653 µM) | 0.4 (≈ 0.653 µM) | > 50 | > 50 | 0.08 (≈ 0.131 µM) | 0.08 (≈ 0.131 µM) | 2 (≈ 3.26 µM) | 10 (≈ 16.3 µM) | –
COc1ccc(F)cc1[C@H](Cn1c(=O)n(C(C)(C)C(=O)N2CCCCC2)c(=O)c2c(C)c(-n3nccn3)sc21)OCC(C)C [Compound I-11, (R)-1-(2-(5-fluoro-2-methoxyphenyl)-2-isobutoxyethyl)-5-methyl-3-(2-methyl-1-oxo-1-(piperidin-1-yl)propan-2-yl)-6-(2H-1,2,3-triazol-2-yl)thieno[2,3-d]pyrimidine-2,4(1H,3H)-dione] | 10 to 40 | 10 to 40 | – | – | – | – | – | – | – | – | – | – | – | – | – | – | – | – | MIC (C. krusei; read-out: MIC, C. krusei ATCC 6258, Table 3a, 3 replicates, MIC recorded at 48 h): 1.1 to 2 µg/mL (≈ 1.76 to 3.19 µM); MIC (C. krusei; read-out: MIC, C. krusei ATCC 6258, Table 3b (additional results), 3 replicates, MIC recorded at 48 h): 0.25 to 1 µg/mL (≈ 0.399 to 1.6 µM); MIC (C. parapsilosis; read-out: MIC, C. parapsilosis ATCC 22019, Table 3a, 3 replicates, MIC recorded at 48 h): 1.1 to 2 µg/mL (≈ 1.76 to 3.19 µM); MIC (C. parapsilosis; read-out: MIC, C. parapsilosis ATCC 22019, Table 3b (additional results), 3 replicates, MIC recorded at 48 h): 1.01 to 2 µg/mL (≈ 1.61 to 3.19 µM); IC90 ([1]; read-out: Concentration at 90% Inhibition Cg, Collectotrichum graminicola, growth inhibition at 48 hours vs 2% DMSO control): 0.4 µg/mL (≈ 0.638 µM); IC90 ([1]; read-out: Concentration at 90% Inhibition Cg, Collectotrichum graminicola, growth inhibition vs 2% DMSO control at 48 hours): 0.4 µg/mL (≈ 0.638 µM); Concentration at 90% Inhibition Fm [2, 11]: AA (compound concentration of 0.08 ppm at 90% inhibition of fungal pathogens); IC90 [2]: 0.08 µg/mL (≈ 0.128 µM); IC90 ([3]; read-out: Concentration at 90% Inhibition Fv, Fusarium virguliforme, growth inhibition at 48 hours vs 2% DMSO control): 2 µg/mL (≈ 3.19 µM); IC90 ([3]; read-out: Concentration at 90% Inhibition Fv, Fusarium virguliforme, growth inhibition vs 2% DMSO control at 48 hours): 2 µg/mL (≈ 3.19 µM); IC90 ([4]; read-out: Concentration at 90% Inhibition Pc, Phytophthora capsici, growth inhibition at 48 hours vs 2% DMSO control): > 50 µg/mL; IC90 ([4]; read-out: Concentration at 90% Inhibition Pc, Phytophthora capsici, growth inhibition vs 2% DMSO control at 48 hours): > 50 µg/mL; IC90 (Rhizoctonia solani (Rs); read-out: Concentration at 90% Inhibition Rs, Rhizoctonia solani, mycelial plugs, growth inhibition at 48 hours vs 2% DMSO control): 0.4 µg/mL (≈ 0.638 µM); IC90 (Rhizoctonia solani (Rs); read-out: Concentration at 90% Inhibition Rs, Rhizoctonia solani, mycelial plugs, growth inhibition vs 2% DMSO control at 48 hours): 0.4 µg/mL (≈ 0.638 µM); IC90 (Septoria tritici (St); read-out: Concentration at 90% Inhibition St, Septoria tritici, growth inhibition at 48 hours vs 2% DMSO control): 10 µg/mL (≈ 16 µM); IC90 (Septoria tritici (St); read-out: Concentration at 90% Inhibition St, Septoria tritici, growth inhibition vs 2% DMSO control at 48 hours): > 50 µg/mL
